Measured values: patent US10787452B2 (Vertex Pharmaceuticals Incorporated, priority 2012, dated 2020)

System: HCT116 colorectal cancer cells
Experiment: Cisplatin sensitization assay (96 h cell viability MTS);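 further: compound concentration needed to lower the Cisplatin-alone IC50 by a set fold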
Assay type: cell-based
Conditions: 96 h MTS, compound plus Cisplatin
Description: Compounds can be screened for their ability to sensitize HCT116 colorectal cancer cells to Cisplatin using a 96 h cell viability (MTS) assay. […] Compounds and Cisplatin are then both added simultaneously to the cell media in 2-fold serial dilutions from a top final concentration of 10 μM as a full matrix of concentrations in a final cell volume of 200 μl, and the cells are then incubated at 37° C. in 5% CO2. After 96 h, 40 μl of MTS reagent (Promega G358a) is added to each well and the cells are incubated for 1 h at 37° C. in 5% CO2.

| Structure (SMILES) | Cisplatin Sensitization Assay |
| --- | --- |
| Nc1nn2cc(F)cnc2c1C(=O)Nc1cnccc1N1CCN(C2CCOC2)CC1 (racemic) [I-N-19, (R,S)-2-amino-6-fluoro-N-(4-(4-(tetrahydrofuran-3-yl)piperazin-1-yl)pyridin-3-yl)pyrazolo[1,5-a]pyrimidine-3-carboxamide] | +++ (Compounds with a Cisplatin sensitization value of <0.02 μM are marked with “+++.”) |
| N#CCc1cnc2c(C(=O)Nc3cnccc3OC3CCCNC3)c(N)nn2c1 (racemic) [I-O-2, (R,S)-2-amino-6-(cyanomethyl)-N-(4-(piperidin-3-yloxy)pyridin-3-yl)pyrazolo[1,5-a]pyrimidine-3-carboxamide] | ++ (Compounds with a Cisplatin sensitization value >0.02 μM but <0.2 μM are marked with “++.”) |
| Nc1nn2cc(F)cnc2c1C(=O)Nc1cnccc1OC1CN2CCC1CC2 (racemic) [I-O-6, (R,S)-2-amino-6-fluoro-N-(4-(quinuclidin-3-yloxy)pyridin-3-yl)pyrazolo[1,5-a]pyrimidine-3-carboxamide] | +++ (Compounds with a Cisplatin sensitization value of <0.02 μM are marked with “+++.”) |
| Nc1nn2cc(F)cnc2c1C(=O)Nc1cnccc1OC1CCOC1 (racemic) [I-O-15, (R,S)-2-amino-6-fluoro-N-(4-((tetrahydrofuran-3-yl)oxy)pyridin-3-yl)pyrazolo[1,5-a]pyrimidine-3-carboxamide] | +++ (Compounds with a Cisplatin sensitization value of <0.02 μM are marked with “+++.”) |
| CN1CCC(c2ccncc2NC(=O)c2c(N)nn3cc(F)cnc23)CC1 [I-C-1, 2-amino-6-fluoro-N-(4-(1-methylpiperidin-4-yl)pyridin-3-yl)pyrazolo[1,5-a]pyrimidine-3-carboxamide] | ++ (Compounds with a Cisplatin sensitization value >0.02 μM but <0.2 μM are marked with “++.”) |
| Cc1ccncc1NC(=O)c1c(N)nn2cc(Cl)cnc12 [I-C-2, 2-amino-6-chloro-N-(4-methylpyridin-3-yl)pyrazolo[1,5-a]pyrimidine-3-carboxamide] | ++ (Compounds with a Cisplatin sensitization value >0.02 μM but <0.2 μM are marked with “++.”) |
| Cc1ccncc1NC(=O)c1c(N)nn2cc(F)cnc12 [I-C-4, 2-amino-6-fluoro-N-(4-methylpyridin-3-yl)pyrazolo[1,5-a]pyrimidine-3-carboxamide] | ++ (Compounds with a Cisplatin sensitization value >0.02 μM but <0.2 μM are marked with “++.”) |
| Nc1nn2cc(F)cnc2c1C(=O)Nc1cnccc1-c1ccccc1 [I-C-5, 2-amino-6-fluoro-N-(4-phenylpyridin-3-yl)pyrazolo[1,5-a]pyrimidine-3-carboxamide] | +++ (Compounds with a Cisplatin sensitization value of <0.02 μM are marked with “+++.”) |
| N#CCc1cnc2c(C(=O)Nc3cnccc3-c3ccccc3)c(N)nn2c1 [I-C-6, 2-amino-6-(cyanomethyl)-N-(4-phenylpyridin-3-yl)pyrazolo[1,5-a]pyrimidine-3-carboxamide] | +++ (Compounds with a Cisplatin sensitization value of <0.02 μM are marked with “+++.”) |
| Nc1nn2cc(F)cnc2c1C(=O)Nc1cncc2c1CCNC2 [I-C-7, 2-amino-6-fluoro-N-(5,6,7,8-tetrahydro-2,7-naphthyridin-4-yl)pyrazolo[1,5-a]pyrimidine-3-carboxamide] | ++ (Compounds with a Cisplatin sensitization value >0.02 μM but <0.2 μM are marked with “++.”) |
| CN1CCc2c(cncc2NC(=O)c2c(N)nn3cc(F)cnc23)C1 [I-C-8, 2-amino-6-fluoro-N-(7-methyl-5,6,7,8-tetrahydro-2,7-naphthyridin-4-yl)pyrazolo[1,5-a]pyrimidine-3-carboxamide] | + (Compounds with a Cisplatin sensitization value >0.2 μM but <5 μM are marked with “+.”) |
| C[N+]1([O-])CCc2c(cncc2NC(=O)c2c(N)nn3cc(F)cnc23)C1 (stereo not drawn) [I-C-9, 5-(2-amino-6-fluoropyrazolo[1,5-a]pyrimidine-3-carboxamido)-2-methyl-1,2,3,4-tetrahydro-2,7-naphthyridine 2-oxide] | + (Compounds with a Cisplatin sensitization value >0.2 μM but <5 μM are marked with “+.”) |
